In experiment [1] the target is T1, rat liver glucocorticoid receptors (Rattus norvegicus, UniProt P06536).
T1 construct: from tissue; host or cells: rat liver
T1 sequence (P06536 1-795): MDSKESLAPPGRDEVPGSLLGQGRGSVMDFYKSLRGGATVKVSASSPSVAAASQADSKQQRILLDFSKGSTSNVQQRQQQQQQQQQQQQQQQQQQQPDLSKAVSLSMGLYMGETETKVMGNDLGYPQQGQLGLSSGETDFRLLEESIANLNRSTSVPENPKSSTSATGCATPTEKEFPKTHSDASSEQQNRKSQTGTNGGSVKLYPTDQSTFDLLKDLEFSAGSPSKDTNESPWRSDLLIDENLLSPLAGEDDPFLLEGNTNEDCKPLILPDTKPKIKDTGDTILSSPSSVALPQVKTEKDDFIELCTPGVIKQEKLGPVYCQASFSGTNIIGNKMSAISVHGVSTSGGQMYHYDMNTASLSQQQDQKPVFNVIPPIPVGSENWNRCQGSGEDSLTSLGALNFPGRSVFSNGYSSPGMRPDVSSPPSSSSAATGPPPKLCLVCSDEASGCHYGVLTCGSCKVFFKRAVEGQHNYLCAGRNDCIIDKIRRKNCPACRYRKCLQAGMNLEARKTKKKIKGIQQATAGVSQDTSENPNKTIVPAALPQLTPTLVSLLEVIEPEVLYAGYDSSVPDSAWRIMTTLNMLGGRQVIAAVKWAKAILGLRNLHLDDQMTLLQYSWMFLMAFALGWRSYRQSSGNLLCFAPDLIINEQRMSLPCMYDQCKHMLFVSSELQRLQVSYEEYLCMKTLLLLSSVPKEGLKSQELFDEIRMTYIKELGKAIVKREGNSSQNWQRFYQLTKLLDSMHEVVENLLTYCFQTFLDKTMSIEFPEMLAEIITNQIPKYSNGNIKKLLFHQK
Briefly: Affinity to rat liver glucocorticoid receptors (method of Baxter et al.). It counts as binding. The text has this:
A. Munck and K. Leung: "Receptors and Mechanism of Action of Steroid Hormones", Ed.

In experiment [2] the test system is thymus weight. Nature of the experiment: Thymus involution (reduction of thymus weight) in rats. It counts as in vivo. As for the experimental part: (§1) It is known that glucocorticoids cause thymus involution [O. Greengard, R. Machovich: "Hydrocortisone Regulation of Thymidine Kinase in Thymus Involution and Hematopoietic Tissues", Biochem. Biophys. Acta 286, 382-388 (1972)], 50% reduction of thymus weight was observed on chickens with a dose of 0.01 mg/100 g and on rats with a dose of 0.001 mg/100 g for both TCA and 3-chloro-TCA.

Experiment [3] relates to thymus weight. Nature of the experiment: Thymus involution (reduction of thymus weight) in chickens. It counts as in vivo. On the procedure: as §1
The target in experiment [4] is T1, rat liver glucocorticoid receptors. Conditions: on the basis of literature data (Munck and Leung); read-out: apparent dissociation constant; cited from earlier work.
Experiment [5] deals with cotton granuloma. Briefly: Local cotton granuloma test (local antiphlogistic effect). It counts as in vivo. An excerpt:
(§2) Local antiphlogistic effect
(b) Local cotton granuloma test [B. Silvestrini: Arzneim. Forsch. 19, 30 (1969)]

Experiment [6] has as its system granuloma pouch. Briefly: Local pouch test according to Selye (local antiphlogistic effect). It counts as in vivo.
Description: as §2
(a) Local pouch test according to Selye [Bianchetti et al.: Arzneim. Forsch. 27, 2096 (1977)]

The test system of experiment [7] is carrageenin-induced planter oedema. Nature of the experiment: Inhibition of carrageenin-induced planter oedema (systemic antiphlogistic effect). It counts as in vivo. The text has this: (§3) Systemic antiphlogistic effect
(a) Inhibition of carrageenin-induced planter oedema [Winter et al.: J. Pharm. Exp. Therap. […]]

Experiment [8] relates to ear inflammation provoked by croton oil. Nature of the experiment: Inhibition of ear inflammation provoked by croton oil (local antiphlogistic effect). It counts as in vivo.
Description: as §2
(c) Inhibition of ear inflammation provoked by croton oil [Tonelli et al.: Endocrinology 77, 625 (1965)]

Experiment [9] deals with cotton granuloma. Nature of the experiment: Cotton granuloma test (systemic antiphlogistic effect). It counts as in vivo.
Description: as §3
(c) Cotton granuloma test [C. A. Winter et al: J. Pharm. Exp. Therap. 141, 369 (1963)]

For experiment [10], the system named is granuloma pouch. Briefly: Granuloma pouch test according to Selye (systemic antiphlogistic effect). It counts as in vivo.
Description: as §3
(b) Granuloma pouch test according to Selye [J. Selye: Recent Progr. Horm. Res. 8, 117 (1953)]

Setting [11] is: rat liver glucocorticoid receptors, read-out: apparent dissociation constant.

Where two headings read alike, the source gives them in different places.

Regarding `CC1(C)O[C@@H]2C[C@H]3[C@@H]4CC(Br)=C5C=C(Cl)C=C[C@]5(C)[C@@]4(F)[C@@H](O)C[C@]3(C)[C@]2(C(=O)CO)O1` [3-chloro-6-bromo-TCA, 3-chloro-6-bromo-9α-fluoro-11β,16α,17α,21-tetrahydroxy-pregna-1,3,5-triene-20-one-16,17-acetonide], in [1] (setting [11]), the Kd was found to be 60 nM.
On to `CC1(C)O[C@@H]2C[C@H]3[C@@H]4CCC5=CC(=O)C=C[C@]5(C)[C@@]4(F)[C@@H](O)C[C@]3(C)[C@]2(C(=O)CO)O1` [TCA, 9α-fluoro-11β,16α,17α,21-tetrahydroxy-pregna-1,4-diene-3,20-dione-16,17-acetonide, reference compound], for which the “dose giving 50% reduction of thymus weight” value stood at 0.001 mg/100 g in the experiment on thymus weight [2] and 0.01 mg/100 g in the experiment on thymus weight [3]. Moreover, the Kd in experiment [4] was 10 nM.
Turning to `CC1(C)O[C@@H]2C[C@H]3[C@@H]4C[C@H](F)C5=CC(=O)C=C[C@]5(C)[C@@]4(F)[C@@H](O)C[C@]3(C)[C@]2(C(=O)CO)O1` [fluocinolon-acetonide, 6α,9α-difluoro-11β,16α,17α,21-tetrahydro-pregna-1,4-diene-3,20-dione-16,17-acetonide, reference compound], the Kd in [1] amounted to 15 nM.
For `CC1(C)O[C@@H]2C[C@H]3[C@@H]4CC(F)=C5C=C(Cl)C=C[C@]5(C)[C@@]4(F)[C@@H](O)C[C@]3(C)[C@]2(C(=O)CO)O1` [Example 3-chloro-FCA, 3-chloro-6,9α-difluoro-11β,16α,17α,21-tetrahydroxy-pregna-1,3,5-triene-20-one-16,17-acetonide], the Kd in experiment [1] (setting [11]) was 25 nM.
With `CC(=O)OCC(=O)[C@@]12OC(C)(C)O[C@@H]1C[C@H]1[C@@H]3CC=C4C=C(Cl)C=C[C@]4(C)[C@@]3(F)[C@@H](O)C[C@@]12C` [3-Chloro-TCA-21-acetate, 3-chloro-9α-fluoro-11β,16α,17α,21-tetrahydroxy-pregna-1,3,5-triene-20-one-16,17-acetonide-21-acetate], the Inhibition % in the experiment on cotton granuloma [5] (0.033 mg/cotton) turned out to be 52.4%; in the experiment on cotton granuloma [5] (0.10 mg/cotton) it was 35.3%; in the experiment with granuloma pouch [6] (0.033 mg/pouch), 12.4%; in the experiment with granuloma pouch [6] (0.10 mg/pouch), 26.3%; in experiment [7] (2 mg/kg p.o.), 8.9%; in experiment [7] (6 mg/kg p.o.), 9.6%. Moreover, the Inhibition % in [8] (0.02 mg/ml) came out at 10.0%; in [8] (0.10 mg/ml) it was 17.8%; in the experiment with cotton granuloma [9] (0.5 mg/kg s.c.), 33.0%; in the experiment with cotton granuloma [9] (1.5 mg/kg s.c.) it was 91.0%; with granuloma pouch [10] (0.5 mg/kg s.c.) it was 56.6%; in the experiment with granuloma pouch [10] (1.5 mg/kg s.c.), 73.3%.
On to `CC1(C)O[C@@H]2C[C@H]3[C@@H]4CC=C5C=C(Cl)C=C[C@]5(C)[C@@]4(F)[C@@H](O)C[C@]3(C)[C@]2(C(=O)CO)O1` [Example 3-Chloro-TCA, 3-chloro-9α-fluoro-11β,16α,17α,21-tetrahydroxy-pregna-1,3,5-triene-20-one-16,17-acetonide], for which the Inhibition % is listed as 24.1% with cotton granuloma [5] (0.033 mg/cotton); 51.4% in the experiment on cotton granuloma [5] (0.10 mg/cotton); 26.0% in the experiment with granuloma pouch [6] (0.033 mg/pouch); 32.3% in the experiment with granuloma pouch [6] (0.10 mg/pouch); 30.2% in [7] (2 mg/kg p.o.); 38.7% in experiment [7] (6 mg/kg p.o.). For the same compound, the Inhibition % in experiment [8] (0.02 mg/ml) is 30.0%; in [8] (0.10 mg/ml), 52.9%; in the experiment with cotton granuloma [9] (0.5 mg/kg s.c.) it was 22.0%; with cotton granuloma [9] (1.5 mg/kg s.c.), 26.0%; with granuloma pouch [10] (0.5 mg/kg s.c.), 90.8%; in the experiment on granuloma pouch [10] (1.5 mg/kg s.c.), 90.1%. The “dose giving 50% reduction of thymus weight” value with thymus weight [2] was determined as 0.001 mg/100 g; in the experiment with thymus weight [3], 0.01 mg/100 g. Besides, the Kd in experiment [1] (setting [11]) is 30 nM.

The values above are taken from US4456601A, “3-Chloro-pregnane derivatives and a process for the preparation thereof” (Richter Gedeon Vegyeszeti Gyar Rt., priority 1981, dated 1984).
